# Molecular target: T1, h-11βHSD1 (Homo sapiens, UniProt P28845)
# T1 construct: made in house
# Assay: 11βHSD1 enzyme assay (SPA)
# Format: biochemical
# Settings: yeast extract with h-11βHSD1, 120 nM 3H-cortisone, 4 mM β-NADPH, 60 min at 30° C.
# Procedure: Pharmacological Methods 11βHSD1 Enzyme Assay Materials
# ^3H-cortisone and anti-rabbit Ig coated scintillation proximity assay (SPA) beads were purchased from Amersham Pharmacia Biotech, β-NADPH was from Sigma and rabbit anti-cortisol antibodies were from Fitzgerald. An extract of yeast transformed with h-11βHSD1 (Hult et al., FEBS Lett, 441, 25 (1998)) was used as the source of enzyme. The test compounds were dissolved in DMSO (10 mM). All dilutions were performed in a buffer containing 50 mM TRIS-HCl (Sigma Chemical Co), 4 mM EDTA (Sigma Chemical Co), 0.1% BSA (Sigma Chemical Co), 0.01% Tween-20 (Sigma Chemical Co) and 0.005% bacitracin (Novo Nordisk A/S), pH=7.4. Optiplate 96 wells plates were supplied by Packard. The amount of ^3H-cortisol bound to the SPA beads was measured on TopCount NXT, Packard.
# h-11βHSD1, 120 nM ^3H-cortisone, 4 mM β-NADPH, antibody (1:200), serial dilutions of test compound and SPA particles (2 mg/well) were added to the wells. The reaction was initiated by mixing the different components and was allowed to proceed under shaking for 60 min at 30° C. […] Data was analysed using GraphPad Prism software.
# T1 sequence (P28845 whole entry): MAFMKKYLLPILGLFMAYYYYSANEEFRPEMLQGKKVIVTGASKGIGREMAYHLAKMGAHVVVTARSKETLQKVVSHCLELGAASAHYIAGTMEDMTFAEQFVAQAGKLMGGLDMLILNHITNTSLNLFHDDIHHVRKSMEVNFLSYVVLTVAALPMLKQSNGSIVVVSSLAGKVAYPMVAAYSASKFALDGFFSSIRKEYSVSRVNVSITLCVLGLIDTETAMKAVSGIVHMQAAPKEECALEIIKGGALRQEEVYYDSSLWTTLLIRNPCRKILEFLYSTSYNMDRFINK
row,IC50 [µM],Structure (SMILES)
1,4.7,"Cc1cc(C(F)(F)F)n2nc(C(=O)N3CCCCC3)cc2n1 [Example 3, (5-methyl-7-trifluoromethyl-pyrazolo[1,5-a]pyrimidin-2-yl)-(piperidin-1-yl)methanone]"
2,0.34,Cc1cc(-c2ccccc2)n2nc(C(=O)N(C)C3CCCCC3)cc2n1 [Example 4]

# Reference: patent publication US20070270408A1, “Pharmaceutical use of substituted pyrazolo[1,5-a]pyrimidines” (Novo Nordisk A/S, priority 2003, published 2007)
